Values joined by “and” are separate entries in the source; they are usually repeats but may differ in a detail not shown here. Equal entries are not always repeated.
Columns and labels:
[1] = biological target: T1, wild-type hBACE1 in CHO-K1 cells (Homo sapiens, UniProt P56817); assay: Single molecule TIRF microscopy and bleaching step analysis in CHO-K1 cells; type: cell-based; conditions: 200 nM probe, fixed CHO-K1, TIRF, after rolling background subtraction
T1 construct: expressed in transfected cells; host or cells: CHO-K1
T1 sequence (P56817 46-501): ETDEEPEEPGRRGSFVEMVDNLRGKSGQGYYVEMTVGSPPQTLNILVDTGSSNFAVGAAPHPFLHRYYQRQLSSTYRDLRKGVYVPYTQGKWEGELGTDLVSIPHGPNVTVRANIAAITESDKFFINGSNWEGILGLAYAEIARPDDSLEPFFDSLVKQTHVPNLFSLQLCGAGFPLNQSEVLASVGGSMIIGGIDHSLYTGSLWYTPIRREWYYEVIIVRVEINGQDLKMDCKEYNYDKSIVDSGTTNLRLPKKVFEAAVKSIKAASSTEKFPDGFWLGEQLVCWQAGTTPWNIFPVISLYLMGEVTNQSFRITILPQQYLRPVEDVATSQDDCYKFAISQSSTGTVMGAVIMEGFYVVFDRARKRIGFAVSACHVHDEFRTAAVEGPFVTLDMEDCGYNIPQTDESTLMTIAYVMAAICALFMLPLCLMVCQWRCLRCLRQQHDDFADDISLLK
Protocol: Due to the high photostability and quantum yield of the Alexa dyes, the C3-compounds are potential tools for single molecule fluorescence microscopy of BACE1. […] CHO-K1 cells were transfected with wild-type BACE1. […] The samples were then recorded using total internal reflection fluorescence (TIRF) microscopy. […] Prior to analysis, ImageJ rolling background subtraction was applied[45] (Figure 6A, right panel). […] Single particles were identified and time traces of fluorescence intensity were extracted using GMimPro[46] (Figure 6B). The time traces were then subjected to a bleaching-step analysis with quickPBSA[47] (Figure 6B). […] The msfGFP was reported previously to display a fluorescence probability of about 50%, defined as combined probability of fluorescence, detection in the specific imaging system and identification in the analysis of a BACE1 molecule.[48] […] Here, the best fits indicated also a fluorescence probability of about 60%, but with a considerably lower fit error compared to dimers only (Figure 6D, blue traces).
The panel in the middle depicts typical single molecule complexes 48 h after transfection with 50 ng wild type BACE1. […] The insets highlight single fluorescence spots at higher magnification. […] (B) Single fluorescence spots were located and fluorescence intensities over time were extracted (see methods). […]

[2] = biological target: BACE-1 (mouse Protein, recombinant) (Mus musculus, UniProt P56818); assay: Nanotemper (Monolith NT.115) binding analysis
BACE-1 (mouse Protein, recombinant), sequence (P56818 46-457 limits assumed): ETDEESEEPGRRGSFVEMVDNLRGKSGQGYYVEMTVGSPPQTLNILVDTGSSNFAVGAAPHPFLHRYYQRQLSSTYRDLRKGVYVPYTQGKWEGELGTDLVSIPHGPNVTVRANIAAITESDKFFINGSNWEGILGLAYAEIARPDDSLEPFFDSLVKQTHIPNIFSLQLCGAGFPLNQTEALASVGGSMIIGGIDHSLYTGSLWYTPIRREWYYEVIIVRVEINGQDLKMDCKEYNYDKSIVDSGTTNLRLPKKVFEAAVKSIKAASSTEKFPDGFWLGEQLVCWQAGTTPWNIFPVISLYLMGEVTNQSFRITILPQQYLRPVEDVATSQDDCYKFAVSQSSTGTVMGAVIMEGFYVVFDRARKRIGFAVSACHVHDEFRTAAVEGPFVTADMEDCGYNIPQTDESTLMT
Protocol: For binding analysis, the Monolith NT.115 (Nanotemper) was used. BACE-1 (mouse Protein, recombinant, life technologies, 50002-M08H-250, LCL10JA2204)) was dissolved in 50 mM HEPES/100 mM NaCl, pH 5 to a concentration of 20 μM. […] Samples were loaded on standard capillaries (Nanotemper, MO-K022) and measured in triplicate at 22 °C, using 1%/60% LED power for Alexa488/Alexa568 and 10% MST power. Fluorescence was plotted against protein concentrations.

signal-to-background ratio [1]: 4.8
Kd [2]: 1000 nM
fluorescence reading, single replicates ([2]; BACE1 concentration 0.305 (unit not given; 0.3–5000 nM), triplicate): 995.235 and 994.451 and 995.188
fluorescence reading, single replicates ([2]; BACE1 concentration 0.61, triplicate): 995.092 and 995.228 and 995.025
fluorescence reading, single replicates ([2]; BACE1 concentration 1.221, triplicate): 995.123 and 995.217 and 995.055
fluorescence reading, single replicates ([2]; BACE1 concentration 2.441, triplicate): 994.777 and 994.504 and 994.766
fluorescence reading, single replicates ([2]; BACE1 concentration 4.883, triplicate): 994.407 and 994.774 and 995.083
fluorescence reading, single replicates ([2]; BACE1 concentration 9.766, triplicate): 995.092 and 994.263 and 994.945
fluorescence reading, single replicates ([2]; BACE1 concentration 19.531, triplicate): 994.925 and 994.824 and 995.417
fluorescence reading, single replicates ([2]; BACE1 concentration 39.062, triplicate): 994.869 and 994.87 and 995.275
fluorescence reading, single replicates ([2]; BACE1 concentration 78.125, triplicate): 995.397 and 995.08 and 995.109
fluorescence reading, single replicates ([2]; BACE1 concentration 156.25, triplicate): 995.324 and 994.996 and 995.206
fluorescence reading, single replicates ([2]; BACE1 concentration 312.5, triplicate): 995.935 and 995.418 and 995.988
fluorescence reading, single replicates ([2]; BACE1 concentration 625, triplicate): 996.951 and 996.59 and 996.649
fluorescence reading, single replicates ([2]; BACE1 concentration 1250, triplicate): 999.327 and 998.59 and 999.026
fluorescence reading, single replicates ([2]; BACE1 concentration 2500, triplicate): 1002.784 and 1002.705 and 1002.138
fluorescence reading, single replicates ([2]; BACE1 concentration 5000, triplicate): 1000.96 and 1001.179 and 1001.396
Compound: C[C@@H](NC(=O)c1cc(C(=O)N[C@@H](Cc2ccccc2)[C@H](O)CNC2CC2)cc(N(C)S(=O)(=O)CCCNC(=O)c2ccc(C(=O)O)c(-c3c4ccc(=N)c(S(=O)(=O)O)c-4oc4c(S(=O)(=O)O)c(N)ccc34)c2)c1)c1ccccc1 [2-(6-Amino-3-iminio-4,5-disulfo-3H-xanthen-9-yl)-4-((3-(N-(3-(((2S,3R)-4-(cyclopropylamino)-3-hydroxy-1-phenylbutan-2-yl)carbamoyl)-5-(((R)-1-phenylethyl)carbamoyl)phenyl)-N-methylsulfamoyl)propyl)carbamoyl)benzoate]

— publication PMC11215771 (Journal of Medicinal Chemistry, 2024)
